Reference: patent US12635689B2, “Antifungal compositions” (priority 2019, dated 2026)
In brackets after ≈: the same amount, converted by molar mass. Entries after “also recorded” stand apart in the source; their conditions may differ.

Experiments:
Z. tritici cells [1] = assay type: cell-based, Zymoseptoria tritici
Z. tritici [2] = assay: Growth inhibition on agar plates supplemented with compound; assay type: cell-based, Zymoseptoria tritici
U. maydis [3] = assay: as above; assay type: cell-based, Ustilago maydis
Z. tritici [4] = assay type: cell-based, Zymoseptoria tritici
U. maydis [5] = assay: Live/dead staining in liquid culture; assay type: cell-based, Ustilago maydis
[6] = tested on: Z. tritici plasma membrane; assay type: cell-based, Zymoseptoria tritici
[7] = tested on: U. maydis plasma membrane; assay: Plasma membrane integrity with GFP-Sso1 marker (patches, photo-bleaching recovery); assay type: cell-based, Ustilago maydis
Z. tritici [8] = assay: Plasma membrane potential, DiBAC4(3) staining; assay type: cell-based, Zymoseptoria tritici; details: high concentrations
Experimental: (§1) Drug-induced leakage of ions from the cell was then determined by visualizing alterations of the membrane potential in C12-G+-treated cells, using the voltage-sensitive fluorescent probe bis-(1,3-dibutylbarbituric acid) trimethine oxonol, DiBAC4(3), which only stains depolarised cells. […] Therefore, the effect on the plasma membrane is most likely not the primary MoA of C12-G+ in fungi.

U. maydis [9] = assay: Plasma membrane potential, DiBAC4(3) staining; assay type: cell-based, Ustilago maydis; details: high concentrations
Experimental: as §1

Z. tritici mitochondria [10] = assay type: cell-based, Zymoseptoria tritici
Z. tritici mitochondria [11] = assay type: cell-based, Zymoseptoria tritici; details: for mitochondrial depolarisation / inhibition of mitochondrial respiration: Z. tritici
U. maydis mitochondria = assay: Mitochondrial depolarisation, TMRM staining; assay type: cell-based, Ustilago maydis; details: low amounts
cellular respiration = assay: Cellular oxygen consumption in cell suspensions; assay type: cell-based, U. maydis
[12] = tested on: C109 human skin fibroblasts; assay: Mitochondrial organization in human skin fibroblasts; assay type: cell-based
Experimental: The effects on mitochondria may account for the fungal specificity of C12-G+. To test this, mammalian skin C109 fibroblasts were treated with C12-G+ and monitored for its effect on mitochondrial shape and membrane potential.
Low toxicity to humans and in the environment is an important requirement for fungicides. The toxicity of C12-TPP+, C18-TMA+ and C18-DMS+ was therefore tested on C109 human skin fibroblasts. Mitochondrial organization and mitochondrial membrane potential were monitored after incubating with various concentrations of the compounds.

Daphnia magna [13] = assay: Daphnia magna 30 minute treatment, TMRM mitochondrial potential; assay type: in vivo; details: 1 μg/ml for 30 minutes
Experimental: In addition, the toxicity of C12-G+, C18-TMA+ and C18-DMS+ on the water flea Daphnia magna was investigated. This freshwater crustacean is well-established as a reporter organism in toxicity tests. Firstly, Daphnia magna was treated with 1 μg/ml of C12-G+, C18-TMA+ and C18-DMS+ for 30 minutes, followed by visualization of the mitochondrial potential by TMRM.

Daphnia magna [14] = assay: Daphnia magna 24 h toxicity (motility, escape response as indicator of mortality); assay type: in vivo
Experimental: Next, water fleas were treated for 24 h with various concentrations of all three SACCs and their motility behaviour and “escape response” monitored as an indicator of mortality. […] Higher amounts of both C18 SACCs eventually killed Daphnia magna, with C18-TMA+ being 1.8-times more toxic than C18-DMS+.

Z. tritici cells [15] = assay: Programmed cell death, CaspACE FITC-VAD-FMK with propidium iodide co-staining; assay type: cell-based, Zymoseptoria tritici; details: 24 h treatment
[16] = tested on: Z. tritici (strain IPO323); set-up: species or system Zymoseptoria tritici on wheat; details: in vivo
M. oryzae (strain Guy11) = assay type: in vivo, Magnaporthe oryzae on rice; details: rice; for protection at high concentrations: M. oryzae, high concentrations (75 and 100 μg/ml); for disease symptom development: sprayed 24 h before M. oryzae, 4 days, concentration-dependent
rice leaves [17] = assay: Early plant defence response, diaminobenzidine (DAB) staining of H2O2; assay type: in vivo; details: 150 μg/ml SACC (salicylic acid 15 mM), 6 h
wheat leaves = details: in vivo
rice leaves [18] = details: in vivo
[19] = tested on: C109 human skin fibroblasts; assay: Mitochondrial membrane potential in human skin fibroblasts
C. albicans [20] = assay type: cell-based, Candida albicans
Candida glabrata = assay type: cell-based
[21] = tested on: Candida albicans mitochondria; assay type: cell-based
[22] = tested on: Candida glabrata mitochondria; assay type: cell-based
U. maydis [23] = assay type: cell-based, Ustilago maydis
C. albicans [24] = assay type: cell-based, Candida albicans; remark: listed apart in the source
C. glabrata = assay type: cell-based, Candida glabrata
Z. tritici cells [25] = assay: Programmed cell death, Annexin-V-fluorescein staining; assay type: cell-based, Zymoseptoria tritici

antimycin A was tested, and the mROS levels (Z. tritici cells [1]) was “increase of mROS”.

CCCCCCCCCCCCNC(=N)N [C12-G+, dodecylguanidinium] was tested, and the “Z. tritici more sensitive than U. maydis (growth inhibition)” value (Z. tritici [2]) was roughly 4 times, the “EC50, concentration at 50% inhibition of growth” value (Z. tritici [2]; Z. tritici) was 0.6 µg/mL and the “EC50, concentration at 50% inhibition of growth” value (U. maydis [3]) was 2.3 µg/mL. The cell viability (Z. tritici [4]; 30-45 minutes incubation, up to 100 μg/ml) was “most cells were still alive”, the cells killed (Z. tritici [4]; after 1 h at 100 μg/ml) was greater than 80% and the cell viability (U. maydis [5]; 30-45 minutes incubation, up to 50 μg/ml) was “most cells were still alive”. For the same compound, the killing (U. maydis [5]; after 1 h at 100 μg/ml) was roughly 15%, the “EC50, effect on fungal plasma membrane” value ([6]; Z. tritici) was 20 to 50 µg/mL and the “lateral mobility of GFP-Sso1” value ([6]; Z. tritici) was “this effect was not observed”. For the same compound, the “Z. tritici less sensitive than U. maydis (GFP-Sso1 patches)” value ([6]; at 50 μg/ml) was roughly 2 times, the “formation of GFP-Sso1 patches at the cell periphery” value ([6]; high concentrations, Z. tritici) was “induced the formation of GFP-Sso1” and the “formation of GFP-Sso1 patches at the cell periphery” value ([7]; high concentrations) was “induced the formation of GFP-Sso1”. The “lateral mobility of GFP-Sso1” value ([7]; ≥10 μg/ml) was “significantly reduced the mobility of GFP-Sso1”, the “number of depolarised cells (DiBAC4(3))” value (Z. tritici [8]) was “had only little effect” and the “number of depolarised cells (DiBAC4(3))” value (U. maydis [9]) was “increased the number of depolarised cells”. For the same compound, the “EC50 on Z. tritici (mitochondrial fragmentation)” value (from here on “EC50 on Z. tritici”) (Z. tritici mitochondria [10]) was 6.63 µg/mL (≈ 29.2 µM), the “Z. tritici more sensitive than U. maydis (mitochondrial membrane potential)” value (Z. tritici mitochondria [11]) was roughly 4 times and the “mitochondrial depolarisation (TMRM)” value (U. maydis mitochondria) was “depolarised mitochondria”. The cellular oxygen consumption (cellular respiration) was “inhibits cellular respiration”, the “effect on mitochondrial organization” value ([12]; beyond 20 μg/ml) was “caused organelle fragmentation and swollen cristae” and the “effect on mitochondrial organization” value ([12]; concentrations up to 20 μg/ml) was “little effect on mitochondrial organization”. For the same compound, the “mitochondrial potential (TMRM) in Daphnia magna” value (Daphnia magna [13]) was “lost most signal”, the “motility of Daphnia magna” value (Daphnia magna [13]) was “did not affect the motility” and the “concentration that killed all Daphnia magna” value (Daphnia magna [14]) was roughly 1000 ng/mL. For the same compound, the “antimycin A-induced mROS in the presence of compound” value (Z. tritici cells [1]) was “significantly reduced”, the mROS levels (Z. tritici cells [1]) was “decreased mROS concentrations; also recorded: significantly reduced mROS” and the “early apoptotic cells (CaspACE FITC-VAD-FMK positive, propidium iodide negative)” value (Z. tritici cells [15]) was “Only a few apoptotic cells”. The disease symptom development [16] was “Symptom development was inhibited”, the “protection at high concentrations” value [16] was “does not fully suppress; also recorded: did not fully suppress infection” and the “protection at high concentrations” value (M. oryzae (strain Guy11)) was “does not fully suppress; also recorded: did not fully suppress infection”. The disease symptom development (M. oryzae (strain Guy11)) was “Symptom development was inhibited”, the “peroxide production / DAB reaction (plant defence)” value (from here on “peroxide production / DAB reaction”) (rice leaves [17]) was “slight peroxide production” and the “chlorosis or necrosis (phytotoxicity)” value (wheat leaves) was “none of the SACCs induced chlorosis or necrosis”. The “chlorosis or necrosis (phytotoxicity)” value (rice leaves [18]) was “none of the SACCs induced chlorosis or necrosis” and the “effect on mitochondrial membrane potential” value ([19]; C109 fibroblasts) was “modest effect”.

In the case of CCCCCCCCCCCC[N+](C)(C)C [C12-TMA+, dodecyltrimethylammonium], the “EC50 on Z. tritici” value (Z. tritici mitochondria [10]) is reported as 3.85 µg/mL.

octadecyldimethylsulfonium [C18-DMS+] was tested, and the “killing (LIVE/DEAD staining)” value (Z. tritici [4]; 12-14 h exposure, 10 μg/ml) was “efficiently killed”, the “killing (LIVE/DEAD staining)” value (C. albicans [20]) was “efficiently killed” and the “relative toxicity in C. albicans” value (C. albicans [20]) was “most toxic”. For the same compound, the “killing (LIVE/DEAD staining)” value (Candida glabrata) was “efficiently killed”, the “EC50 on Z. tritici” value (Z. tritici mitochondria [10]) was 1.72 µg/mL and the “mitochondrial depolarisation / inhibition of mitochondrial respiration” value (Z. tritici mitochondria [11]) was “showed significant inhibition of mitochondrial respiration”. For the same compound, the mitochondrial potential [21] was “reduce the mitochondrial potential”, the mitochondrial potential [22] was “reduce the mitochondrial potential” and the “human mitochondria less sensitive (mitochondrial morphology)” value ([12]; printed as compared to C12-G+) was roughly 29 times. For the same compound, the “mitochondrial potential (TMRM) in Daphnia magna” value (Daphnia magna [13]) was “little or no effect on mitochondrial potential”, the “motility of Daphnia magna” value (Daphnia magna [13]) was “did not affect the motility” and the “effect on Daphnia magna” value (Daphnia magna [14]; at ~1 μg/ml) was “little effect at this concentration”. The mROS levels (Z. tritici cells [1]) was “significantly induced; also recorded: induced mROS production further”, the “mROS levels with complex I inhibitor rotenone” value (Z. tritici cells [1]) was “did not increase mROS levels” and the mROS levels (U. maydis [23]) was “significantly induced”. The mROS levels (C. albicans [24]) was “significantly induced”, the mROS levels (C. glabrata) was “significantly induced” and the “early apoptotic cells (CaspACE FITC-VAD-FMK positive, propidium iodide negative)” value (Z. tritici cells [15]) was “significant increase in early apoptotic cells”. The “Annexin-V-fluorescein membrane-associated fluorescence in apoptotic cells” value (Z. tritici cells [25]) was “only found in C18-DMS+-treated cells”, the disease symptom development [16] was “Symptom development was inhibited” and the “protection at high concentrations” value [16] was “almost abolished symptom developments”. The “protection at high concentrations” value (M. oryzae (strain Guy11)) was “almost abolished symptom developments”, the disease symptom development (M. oryzae (strain Guy11)) was “Symptom development was inhibited” and the “peroxide production / DAB reaction” value (rice leaves [17]) was “much stronger DAB reaction”. The “chlorosis or necrosis (phytotoxicity)” value (wheat leaves) was “none of the SACCs induced chlorosis or necrosis”, the “chlorosis or necrosis (phytotoxicity)” value (rice leaves [18]) was “none of the SACCs induced chlorosis or necrosis” and the “higher specificity for fungi than for humans (inhibition of mitochondrial respiration)” value ([19]; Z. tritici vs human cells) was roughly 53 times.

For O=C(O)c1ccccc1O [salicylic acid], the “peroxide production / DAB reaction” value (rice leaves [17]) was “brown colouring”.

With CCCCCCCCCCCC[P+](c1ccccc1)(c1ccccc1)c1ccccc1 [C12-TPP+, dodecyltriphenylphosphonium] the “EC50 on Z. tritici” value (Z. tritici mitochondria [10]) was 6.63 µg/mL, the “mitochondrial depolarisation / inhibition of mitochondrial respiration” value (Z. tritici mitochondria [11]) was “showed significant inhibition of mitochondrial respiration” and the “EC, human mitochondrial organization” value ([12]; C109 fibroblasts) was 5.62 µg/mL. The “effect on human mitochondrial organization” value ([12]; C109 fibroblasts, various concentrations) was “little effect on human mitochondrial organization” and the “EC50, human mitochondrial respiration” value ([19]; C109 fibroblasts) was 0.355 µg/mL.

With C=C(C)[C@H]1Cc2c(ccc3c2O[C@@H]2COc4cc(OC)c(OC)cc4[C@@H]2C3=O)O1 [rotenone] the mROS levels (Z. tritici cells [1]) was “decreased mROS levels” and the “more effective in decreasing mROS than C12-G+ and C18-TMA+” value (Z. tritici cells [1]) was 3-4 times.

In the case of CCCCCCCCCCCC[N+](CC)(CC)CC [C12-TEA+, dodecyltriethylammonium], the “EC50 on Z. tritici” value (Z. tritici mitochondria [10]) is reported as 2.38 µg/mL.

For CCCCCCCCCCCC[S+](C)C [C12-DMS+, dodecyldimethylsulfonium], the “EC50 on Z. tritici” value (Z. tritici mitochondria [10]) was 7.39 µg/mL and the mROS levels (Z. tritici cells [1]) was “did not increase mROS levels”.
